Results as given in patent US20200289598A1, “SOYBEAN SEED EXTRACT, METHOD FOR PRODUCING THE SAME AND USES THEREOF” (CHARSIRE BIOTECHNOLOGY CORP., priority 2016, published 2020).
“And” between values parts separate entries of the source, which are not always exact repeats. Equal entries are not always repeated. Where two headings read alike, the source gives them in different places.

Columns and labels:
[1] = system: wounds of STZ-induced diabetic rats; assay: Wound closure test in STZ-induced diabetic rats; format: in vivo, rat; settings: mean ± SEM
Source text: Approximately 8 weeks old, with body weight rages of 250 g to 300 g SD male rats were obtained from National Laboratory Animal Center, Taiwan. After 7 days of quarantine, the rats were moved until the body weight over 350 g. The rats were identified by ear notch of the animals. Each cage tag was labeled with the cage number, study number, sex and group name. The rats were housed 2 per cage in polycarbonate cage in the AAALAC accredited animal facility. […] Laboratory Rodent Diet 5001 (PMI® Nutrition International, Inc., MO, USA) were supplied ad libitum throughout the study period. Tap water was supplied ad libitum via bottles attached to the cages. Samples (test articles) were prepared according to Table 4. [table] CGS-21680: Specific adenosine A2A subtype receptor agonist, prepared by adding 1.67 mg of CGS-21680 in 248.4 g of cream base. Diabetic rats: The rats with body weight over 300 g were administrated with one dose of Streptozotocin (STZ, 65 mg/kg) by intravenous injection. The STZ-induced rats with high blood sugar (over 300 mg/dL) for 2 months were selected to conduct the wound closure test. Trauma surgeries for diabetic rats: The diabetic rats with weight lower than 300 g were eliminated and the rest were randomized into 6 groups. The rats were then anesthetized with pentobarbital and hairs on surgical area (dorsal area) were removed. […] Medication and wound closure measurement: The animals were weighed and the area of wounds was measured every other day for evaluation of wound closure. Medications were applied to each wound twice a day and the wounds were covered with cheesecloth. The hoods were worn on the necks of the rats to prevent the wounds from receiving animal scratches. […] When taking pictures, a standard ruler was placed beside the wounds. Before analyzing the wounds with Image pro (Media cybernetics), length was standardized with the standard ruler in the picture to avoid the errors caused by different picturing distances. Data analysis and statistics: Three wound areas on the rats' backs were analyzed by Image pro. The original wound areas were the areas of day zero. The original wound areas minus the wound areas at different time points and then divided by the original wound areas to get the wound closure percentages. The mean of three wound closure percentages of each rat represents the wound closure of each rat. The data was shown as mean±standard error (SEM). The p-values of the testing results were calculated by t-test in statistics software (SYSTAT, Systat software inc). P<0.05 means there is a significant difference, and it is marked with *. P<0.01 means there is a very significant difference, and it is marked with **. P<0.001 means there is an extremely significant difference, and it is marked with ***.

[2] = format: in vivo, nude mice
Protocol: Animal facility: Approximately 6 to 8 week-old BALB/cAnN.Cg-Foxn1^nu/CrlNarl female mice were obtained from National Laboratory Animal Center, Taiwan. The environment conditions were: temperature: 25±1° C.; humidity: 60±5%; independent air condition; controlled light cycle. Water and food was supplied ad libitum throughout the study period. The mice were housed according to the standard procedure of the laboratory animal committee.
Tumor-bearing mice induction: MDA-MB-231 cells (human breast cancer cells) were cultured until 5×10^6 cells, the cells required in injection of female nude mice were collected with trypsin, and resuspended in PBS solution for tumor induction. The tumor of nude mice was induced by subcutaneous injected with 100 μL of cell solution and released back into the cages to be a normal diet. When the tumor was about 300 mm^3, the mice were subjected to topical administration of different doses of the extract composition and grouping into CTX group and non-CTX group. The weight, appetite, blood sugar and tumor size growth were observed every week to assess the appearance of the normal physiological state of nude mice to understand the efficacy of the extract composition.
Grouping the tumor-bearing mice and treatment: When the tumor was about 300 mm^3, the mice were subjected to grouping as shown in Table 12. The chemotherapy drug (an injection a week) was administrated with the extract composition. The treating group was topically applied to the tumor area, skin around the tumor, and the whole back skin with the dosage of 0.1 g/day. After treatment for 5 weeks, the weight, appetite, blood sugar and tumor size growth of the nude mice were observed.
Clinical assessment of tumor-bearing mice: The physiological state and tumor size of the tumor-bearing mice were assessed including weight, appetite, blood sugar and tumor size. The tumor size was calculated according to: tumor volume (mm^3)=ab^2/2, to assess the tumor growth rate.

[3] = system: MDA-MB-231 (human breast cancer cells) tumor; assay: Tumor growth in MDA-MB-231 tumor-bearing nude mice; format: in vivo; settings: CTX one injection a week, test article topical 0.1 g/day
Source text: Cell line and reagent: MDA-MB-231 (purchased from Food Industry Research and Development Institute, Taiwan); […] Animal facility: Approximately 6 to 8 week-old BALB/cAnN.Cg-Foxn1^nu/CrlNarl female mice were obtained from National Laboratory Animal Center, Taiwan. […] Water and food was supplied ad libitum throughout the study period. The mice were housed according to the standard procedure of the laboratory animal committee. Tumor-bearing mice induction: […] The weight, appetite, blood sugar and tumor size growth were observed every week to assess the appearance of the normal physiological state of nude mice to understand the efficacy of the extract composition. Grouping the tumor-bearing mice and treatment: […] The chemotherapy drug (an injection a week) was administrated with the extract composition. […] [table] Clinical assessment of tumor-bearing mice: The physiological state and tumor size of the tumor-bearing mice were assessed including weight, appetite, blood sugar and tumor size.

SMILES: CCNC(=O)[C@H]1O[C@@H](n2cnc3c(N)nc(NCCc4ccc(CCC(=O)O)cc4)nc32)[C@H](O)[C@@H]1O [CGS-21680]
- wound closure percentage ([1]; Experimental 1, day 4, topical twice a day, CGS-21680 10 μg/wound): 21.87±5.61% and 21.87 ± 5.61 *** %
- wound closure percentage ([1]; Experimental 1, day 6, topical twice a day, CGS-21680 10 μg/wound): 25.45 ± 4.46 *** %
- wound closure percentage ([1]; Experimental 1, day 8, topical twice a day, CGS-21680 10 μg/wound): 45.88 ± 4.28 *** %
- wound closure percentage ([1]; Experimental 1, day 10, topical twice a day, CGS-21680 10 μg/wound): 93.80 ± 2.79 *** %
- wound closure percentage ([1]; Experimental 1, day 12, topical twice a day, CGS-21680 10 μg/wound): 91.15 ± 2.72 ** %
- wound closure percentage ([1]; Experimental 1, day 14, topical twice a day, CGS-21680 10 μg/wound): 98.74 ± 0.60 ** %
- wound closure percentage ([1]; Experimental 2, day 4, topical twice a day, CGS-21680 6.7 μg/wound): 40.02 ± 5.03 ** %
- wound closure percentage ([1]; Experimental 2, day 6, topical twice a day, CGS-21680 6.7 μg/wound): 63.09 ± 2.58 *** %
- wound closure percentage ([1]; Experimental 2, day 8, topical twice a day, CGS-21680 6.7 μg/wound): 77.21 ± 2.44 *** %
- wound closure percentage ([1]; Experimental 2, day 10, topical twice a day, CGS-21680 6.7 μg/wound): 80.93 ± 2.08 *** %
- wound closure percentage ([1]; Experimental 2, day 12, topical twice a day, CGS-21680 6.7 μg/wound): 96.91 ± 1.08 *** %
- wound closure percentage ([1]; Experimental 2, day 14, topical twice a day, CGS-21680 6.7 μg/wound): 99.17 ± 0.54 *** %

SMILES: O=P1(N(CCCl)CCCl)NCCCO1 (centres unmarked) [CTX, cyclophosphamide]
- average body weight ([2]; 4/28): 19.64 g
- average blood sugar ([2]; 5/2): 113 dL
- average body weight ([2]; 5/2): 20.04 g
- average body weight ([2]; 5/5): 18.46 g
- average food intake ([2]; 5/5~5/9): 4.89 g
- average blood sugar ([2]; 5/9): 93 dL
- average body weight ([2]; 5/9): 19.00 g
- average food intake ([2]; 5/9~5/12): 5.61 g
- average body weight ([2]; 5/12): 19.51 g
- average food intake ([2]; 5/12~5/16): 5.38 g
- average blood sugar ([2]; 5/16): 109 dL
- average body weight ([2]; 5/16): 20.99 g
- average food intake ([2]; 5/16~5/19): 5.21 g
- average body weight ([2]; 5/19): 20.42 g
- average food intake ([2]; 5/19~5/23): 4.70 g
- average blood sugar ([2]; 5/23): 122 dL
- average body weight ([2]; 5/23): 21.16 g
- average food intake ([2]; 5/23~5/26): 4.76 g
- average body weight ([2]; 5/26): 20.21 g
- average food intake ([2]; 5/26~5/30): 5.22 g
- average blood sugar ([2]; 5/30): 108 dL
- average body weight ([2]; 5/30): 22.18 g
- tumor size elimination ([3]; 4/28): 0.00 mm^3
- tumor size elimination ([3]; 5/2): 99.61 mm^3
- tumor size elimination ([3]; 5/5): 78.95 mm^3
- tumor size elimination ([3]; 5/9): −19.52 mm^3
- tumor size elimination ([3]; 5/12): −45.11 mm^3
- tumor size elimination ([3]; 5/16): −157.57 mm^3
- tumor size elimination ([3]; 5/19): −176.41 mm^3
- tumor size elimination ([3]; 5/23): −264.85 mm^3
- tumor size elimination ([3]; 5/26): −293.68 mm^3
- tumor size elimination ([3]; 5/30): −391.42 mm^3
